Where two headings read alike, the source gives them in different places.
Assays:
serotonin transporter = biological target: T1, serotonin transporter (Rattus norvegicus, UniProt P31652); experiment: 5-HT transporter affinity: displacement of 3H-paroxetine from male rat cortical membranes; format: binding; conditions: displacement of 3H-paroxetine; male rat cortical membranes; read-out: 5-HT Transporter Affinity Ki
T1 construct: displace ^3H-paroxetine from male rat cortical membranes; from tissue; host or cells: male rat cortical membranes
T1 sequence (P31652 whole entry): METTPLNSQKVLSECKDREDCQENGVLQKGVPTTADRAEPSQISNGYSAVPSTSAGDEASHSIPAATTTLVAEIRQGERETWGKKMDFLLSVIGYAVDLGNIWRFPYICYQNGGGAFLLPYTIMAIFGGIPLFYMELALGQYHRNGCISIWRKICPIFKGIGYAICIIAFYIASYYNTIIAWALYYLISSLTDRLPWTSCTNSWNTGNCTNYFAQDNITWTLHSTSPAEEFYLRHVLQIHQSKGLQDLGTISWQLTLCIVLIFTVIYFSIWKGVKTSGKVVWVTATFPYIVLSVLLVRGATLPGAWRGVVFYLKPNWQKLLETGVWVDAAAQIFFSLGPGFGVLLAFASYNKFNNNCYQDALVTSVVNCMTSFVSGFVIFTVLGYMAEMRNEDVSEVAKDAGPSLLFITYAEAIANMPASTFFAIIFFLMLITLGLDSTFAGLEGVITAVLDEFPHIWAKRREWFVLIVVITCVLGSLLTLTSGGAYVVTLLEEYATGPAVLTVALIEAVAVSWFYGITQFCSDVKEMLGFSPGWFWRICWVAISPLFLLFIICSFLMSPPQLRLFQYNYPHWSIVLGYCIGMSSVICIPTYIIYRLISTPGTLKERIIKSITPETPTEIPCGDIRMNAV

5-HT1A receptor [1] = biological target: T2, 5-HT1A receptor (Homo sapiens, UniProt P08908); experiment: cAMP accumulation assay, 5-HT1A function; format: cell-based; conditions: for Emax: read-out: 5-HT1A Function cAMP (Emax); for EC50: cells marked EC50 (agonist); for IC50: cells marked IC50 (antagonist), read-out: 5-HT1A Function cAMP IC50
T2 sequence (P08908 1-422): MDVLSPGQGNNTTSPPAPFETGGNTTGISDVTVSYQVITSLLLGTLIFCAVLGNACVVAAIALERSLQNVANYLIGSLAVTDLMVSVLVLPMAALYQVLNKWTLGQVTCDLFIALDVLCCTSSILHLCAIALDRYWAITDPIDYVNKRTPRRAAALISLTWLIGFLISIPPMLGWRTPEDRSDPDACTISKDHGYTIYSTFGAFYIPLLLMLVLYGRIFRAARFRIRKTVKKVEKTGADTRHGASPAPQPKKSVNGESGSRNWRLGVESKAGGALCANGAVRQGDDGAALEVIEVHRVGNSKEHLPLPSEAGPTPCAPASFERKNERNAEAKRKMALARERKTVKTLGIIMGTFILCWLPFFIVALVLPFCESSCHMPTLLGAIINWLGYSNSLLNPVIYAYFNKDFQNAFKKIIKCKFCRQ

[2] = biological target: T3, cloned human 5-HT1A receptors (Homo sapiens, UniProt P08908); experiment: 35S-GTPγS binding assay, 5-HT1A function; format: biochemical; conditions: for EC50: agonist potency; for IC50: antagonist potency, reversal of 8-OH-DPAT, read-out: 5-HT1A Function GTPγS IC50
T3 construct: expressed in transfected cells
T3 sequence (P08908 1-422): T2 sequence (P08908 1-422)

5-HT1A receptor [3] = biological target: T2, 5-HT1A receptor; experiment: 5-HT1A receptor affinity: displacement of [3H] 8-OH-DPAT; format: binding; parameters: expressed in transfected cells; conditions: displacement of [3H] 8-OH-DPAT; CHO cells stably transfected with human 5-HT1A receptors; read-out: 5-HT1A Receptor Affinity Ki
[4] = maximum stimulatory effect, in brackets after EC50, read-out: 5-HT1A Function GTPγS (Emax)
[5] = maximum inhibitory effect, in brackets after IC50, read-out: 5-HT1A Function GTPγS (Imax)

SMILES | Ki (serotonin transporter) | Emax (5-HT1A receptor [1]; in brackets after EC50 or IC50) | EC50 [2] | Emax [2, 4] | Ki (5-HT1A receptor [3]) | EC50 (5-HT1A receptor [1]) | IC50 [2] | Emax [2, 5] | IC50 (5-HT1A receptor [1]) | 5-HT1A Function cAMP (Emax) (5-HT1A receptor [1]; in brackets after EC50 or IC50)
CCCN(CCc1coc2c(OC)cccc12)C1COc2c(F)ccc(C(N)=O)c2C1 (stereo not shown) [Compound 158, 8-fluoro-3-[[2-(7-methoxy-1-benzofuran-3-yl)ethyl](propyl)amino]chromane-5-carboxamide] | 120 nM | 0% | 10600 nM | 59% | 232 nM | – | – | – | – | –
NC(=O)c1ccc(F)c2c1CC(NCCCc1c[nH]c3ccc(F)cc13)CO2 (single isomer, unassigned; (+)) [Compound 1a, (+)-8-fluoro-3-{[3-(5-fluoro-1H-indol-3-yl)propyl]amino}chromane-5-carboxamide] | 26.2 nM | 84.5% | 993 nM | 87% | 46.3 nM | 95.8 nM | – | – | – | –
CCCN(CCCc1c[nH]c2ccc(F)cc12)[C@H]1COc2c(F)ccc(OC)c2C1 [Compound 28, (3R)-8-fluoro-N-[3-(5-fluoro-1H-indol-3-yl)propyl]-5-methoxy-N-propylchroman-3-amine] | 17.5 nM | 86% | 166 nM | 88% | 11 nM | 36.5 nM | – | – | – | –
COc1cccc2c1CC(N(CCCc1c[nH]c3ccc(F)cc13)CC1CCC1)CO2 (stereo not shown) [Compound 42, N-(cyclobutylmethyl)-N-[3-(5-fluoro-1H-indol-3-yl)propyl]-N-(5-methoxy-3,4-dihydro-2H-chromen-3-yl)amine] | 54 nM | 72.5% | 763 nM | 84% | 50.4 nM | 154 nM | – | – | – | –
COc1cccc2c1CC(N(CCCc1c[nH]c3ccccc13)C1CCC1)CO2 (stereo not shown) [Compound 44, N-cyclobutyl-N-[3-(1H-indol-3-yl)propyl]-N-(5-methoxy-3,4-dihydro-2H-chromen-3-yl)amine] | 47.2 nM | 80.5% | – | – | 21.4 nM | 70 nM | 242 nM | 59% | – | –
CCN(CCc1coc2c(OC)cccc12)C1COc2c(F)ccc(C(N)=O)c2C1 (stereo not shown) [Compound 157, 3-{ethyl[2-(7-methoxy-1-benzofuran-3-yl)ethyl]amino}-8-fluorochromane-5-carboxamide] | 768 nM | 0% | 1200 nM | 70% | 83.8 nM | – | – | – | – | –
CNC(=O)c1ccc(F)c2c1CC(N(CCCc1c[nH]c3ccc(F)cc13)CC1CC1)CO2 (stereo not shown) [Compound 91, 3-{(cyclopropylmethyl)[3-(5-fluoro-1H-indol-3-yl)propyl]amino}-8-fluoro-N-methylchromane-5-carboxamide] | 3.33 nM | 0% | – | – | 2.28 nM | – | 191 nM | 77% | 88.3 nM | –
CCCN(CCCc1c[nH]c2ccc(F)cc12)C1COc2cccc(C(N)=O)c2C1 (stereo not shown) [Compound 150, 3-[[3-(5-fluoro-1H-indol-3-yl)propyl](propyl)amino]chromane-5-carboxamide] | 18.6 nM | 100% | 13 nM | 74% | 0.93 nM | 1.23 nM | – | – | – | –
COc1cccc2c(CCCCN(C3CCC3)C3COc4c(F)ccc(C(N)=O)c4C3)coc12 (stereo not shown) [Compound 171, 3-{cyclobutyl[4-(7-methoxy-1-benzofuran-3-yl)butyl]amino}-8-fluorochromane-5-carboxamide] | 11200 nM | 0% | – | – | 4.27 nM | – | 404 nM | 100% | 108 nM | –
NC(=O)c1ccc(F)c2c1OCC(N(CCCCc1c[nH]c3ccc(F)cc13)CC1CC1)C2 (stereo not shown) [Compound 125, 3-{(cyclopropylmethyl)[4-(5-fluoro-1H-indol-3-yl)butyl]amino}-5-fluorochromane-8-carboxamide] | 6.8 nM | 64% | 2800 nM | 63% | 86.5 nM | 367 nM | – | – | – | –
COc1cccc2c1CC(N(CCCc1cn(C)c3ccc(F)cc13)CC1CC1)CO2 (stereo not shown) [Compound 38, N-(cyclopropylmethyl)-N-[3-(5-fluoro-1-methyl-1H-indol-3-yl)propyl]-N-(5-methoxy-3,4-dihydro-2H-chromen-3-yl)amine] | 29 nM | 97.5% | 25.8 nM | 90% | 0.15 nM | 8.84 nM | – | – | – | –
COc1cccc2c1CC(N(CCCc1c[nH]c3ccc(C#N)cc13)C1CCC1)CO2 (stereo not shown) [Compound 46, 3-{3-[cyclobutyl(5-methoxy-3,4-dihydro-2H-chromen-3-yl)amino]propyl}-1H-indole-5-carbonitrile] | 7.6 nM | 0% | 107 nM | 36% | 14.6 nM | – | 218 nM | 81% | 899 nM | –
N#Cc1ccc2[nH]cc(CCCN(C3CCC3)[C@H]3COc4c(F)ccc(C(N)=O)c4C3)c2c1 [Compound 97b, (3R)-3-[[3-(5-cyano-1H-indol-3-yl)propyl](cyclobutyl)amino]-8-fluorochromane-5-carboxamide] | 2.44 nM | 0% | – | – | 1.98 nM | – | 317 nM | 100% | 71 nM | –
CCCN(CCCc1c[nH]c2ccc(F)cc12)C1COc2c(F)ccc(C(=O)NC)c2C1 (stereo not shown) [Compound 90, 8-fluoro-3-[[3-(5-fluoro-1H-indol-3-yl)propyl](propyl)amino]-N-methylchromane-5-carboxamide] | 3.37 nM | 0% | 34.5 nM | 47% | 0.81 nM | – | 617 nM | 33% | 73.8 nM | –
CCCCN(CCCc1c[nH]c2ccc(F)cc12)C1COc2c(F)ccc(C(N)=O)c2C1 (stereo not shown) [Compound 72, 3-{butyl[3-(5-fluoro-1H-indol-3-yl)propyl]amino}-8-fluorochromane-5-carboxamide] | 52.5 nM | 0% | – | – | 38.8 nM | – | 3250 nM | 43% | – | –
N#Cc1ccc2[nH]cc(CCCN(CC3CC3)[C@@H]3COc4c(F)ccc(C(N)=O)c4C3)c2c1 [Compound 98a, (3S)-3-[[3-(5-cyano-1H-indol-3-yl)propyl](cyclopropylmethyl)amino]-8-fluorochromane-5-carboxamide] | 3.2 nM | 0% | – | – | 4.72 nM | – | 586 nM | 51% | 113 nM | –
CCN(C(C)CCc1c[nH]c2ccc(F)cc12)C1COc2c(F)ccc(C(N)=O)c2C1 (single isomer, unassigned; (+)) [Compound 16b, (+)-3-{ethyl[3-(5-fluoro-1H-indol-3-yl)-1-methylpropyl]amino}-8-fluorochromane-5-carboxamide] | 0.95 nM | – | 807 nM | 20% | 128 nM | 164 nM | – | – | – | 64.5%
COc1cccc2c(CCCN(C3CCC3)C3COc4c(F)ccc(C(N)=O)c4C3)coc12 (stereo not shown) [Compound 164, 3-{cyclobutyl[3-(7-methoxy-1-benzofuran-3-yl)propyl]amino}-8-fluorochromane-5-carboxamide] | 428 nM | 0% | – | – | 11.9 nM | – | 446 nM | 100% | 116 nM | –

— patent US20050032873A1, “3-Amino chroman and 2-amino tetralin derivatives” (Wyeth, priority 2003, published 2005)
